In PubChem BioAssay (NCI):
Where “and” joins values, the source holds several entries; their conditions need not be identical. Equal values may be shown once.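 Tested at 5 concentrations; 48 h exposure; 96-well plates; endpoints linearly interpolated, else capped at highest concentration. GI50 marks 50% less growth. Definition used: TGI = concentration required for complete inhibition of growth.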

Tests used:
Experiment in all cases: NCI-60 cell line screen, 48 h
SN12C renal = tested on: SN12C renal
MCF7 breast = tested on: MCF7 breast
UACC-62 melanoma = tested on: UACC-62 melanoma
786-0 renal = tested on: 786-0 renal
NCI-H226 lung = tested on: NCI-H226 lung
OVCAR-5 ovarian = tested on: OVCAR-5 ovarian
SW-620 colon = tested on: SW-620 colon
TK-10 renal = tested on: TK-10 renal

C=C(C)[C@@H]1CC[C@]2(C(=O)NS(=O)(=O)c3ccccc3)CC[C@]3(C)[C@H](CC[C@@H]4[C@@]5(C)CC[C@H](OC(=O)NS(=O)(=O)c6ccccc6)C(C)(C)[C@@H]5CC[C@]43C)[C@@H]12
GI50 (SN12C renal): 2.34 µM
TGI (SN12C renal): 15.7 µM
GI50 (MCF7 breast): 2.93 µM
TGI (MCF7 breast): 10.8 µM
GI50 (UACC-62 melanoma): 1.32 µM
TGI (UACC-62 melanoma): 2.92 µM
GI50 (786-0 renal): 2.42 µM
TGI (786-0 renal): 6.93 µM
GI50 (NCI-H226 lung): 2.38 µM
TGI (NCI-H226 lung): 13.8 µM
GI50 (OVCAR-5 ovarian): 3.02 µM
TGI (OVCAR-5 ovarian): 11.8 µM
GI50 (SW-620 colon): 3.27 µM
TGI (SW-620 colon): 15.2 µM
GI50 (TK-10 renal): 2.43 µM
TGI (TK-10 renal): 10.3 µM

COCCNc1cncc(C(N)=O)c1
TGI (SN12C renal): > 100 µM
TGI (MCF7 breast): > 100 µM
TGI (UACC-62 melanoma): > 100 µM
TGI (786-0 renal): > 100 µM
TGI (NCI-H226 lung): > 100 µM
TGI (OVCAR-5 ovarian): > 100 µM
TGI (SW-620 colon): > 100 µM
TGI (TK-10 renal): > 100 µM

C=C1CCC2C3(C)COC(c4ccccc4Cl)OC3CCC2(C)C1/C=C/C1=CCOC1=O (stereo not drawn)
GI50 (SN12C renal): > 100 µM
TGI (SN12C renal): > 100 µM
GI50 (MCF7 breast): 4.38 µM
TGI (MCF7 breast): > 100 µM
GI50 (UACC-62 melanoma): 11.2 µM
TGI (UACC-62 melanoma): > 100 µM
GI50 (786-0 renal): > 100 µM
TGI (786-0 renal): > 100 µM
GI50 (NCI-H226 lung): 14.3 µM
TGI (NCI-H226 lung): > 100 µM
GI50 (OVCAR-5 ovarian): > 100 µM
TGI (OVCAR-5 ovarian): > 100 µM
GI50 (SW-620 colon): 25 µM
TGI (SW-620 colon): > 100 µM
GI50 (TK-10 renal): 19 µM
TGI (TK-10 renal): > 100 µM

N#Cc1cc(S(=O)(=O)Nc2nc3ccccc3o2)c(SCc2ccccc2)cc1Cl
GI50 (SN12C renal): 24.7 µM
TGI (SN12C renal): 57.9 µM
GI50 (MCF7 breast): 39.8 µM
TGI (MCF7 breast): > 100 µM
GI50 (UACC-62 melanoma): 20.3 µM
TGI (UACC-62 melanoma): 52.2 µM
GI50 (786-0 renal): 21.8 µM
TGI (786-0 renal): 45.2 µM
GI50 (NCI-H226 lung): 31.6 µM
TGI (NCI-H226 lung): 80.8 µM
GI50 (OVCAR-5 ovarian): 27 µM
TGI (OVCAR-5 ovarian): 52 µM
GI50 (SW-620 colon): 17.9 µM
TGI (SW-620 colon): 35.5 µM
GI50 (TK-10 renal): 52 µM
TGI (TK-10 renal): > 100 µM

CCOC(=O)C1=C(C)NC(c2ccco2)=C(C#N)C1c1cccc([N+](=O)[O-])c1 (stereo not drawn)
GI50 (SN12C renal): 0.0465 µM
TGI (SN12C renal): 19.7 µM
GI50 (MCF7 breast): 0.0339 µM
TGI (MCF7 breast): 20.8 µM
TGI (UACC-62 melanoma): 2.27 µM
GI50 (786-0 renal): 0.0104 µM
TGI (786-0 renal): 13.5 µM
GI50 (NCI-H226 lung): 0.0137 µM
TGI (NCI-H226 lung): 3.43 µM
GI50 (OVCAR-5 ovarian): 0.0331 µM
TGI (OVCAR-5 ovarian): 99.5 µM
GI50 (SW-620 colon): 0.0101 µM
TGI (SW-620 colon): 1.73 µM
GI50 (TK-10 renal): 3.06 µM
TGI (TK-10 renal): 49.4 µM

CC[C@H](C)[C@H](NC(=O)c1cccn1C)C(=O)N(C)[C@H](C[C@@H](OC(C)=O)c1nc(C(=O)N[C@@H](Cc2ccccc2)C[C@H](C)C(=O)OC)cs1)C(C)C
GI50 (SN12C renal): 0.351 µM
TGI (SN12C renal): > 33.3 µM
GI50 (MCF7 breast): 0.0807 µM
TGI (MCF7 breast): > 33.3 µM
GI50 (UACC-62 melanoma): 0.0569 µM
TGI (UACC-62 melanoma): > 26 µM
GI50 (786-0 renal): 0.172 µM
TGI (786-0 renal): > 15.8 µM
GI50 (NCI-H226 lung): 1.17 µM
TGI (NCI-H226 lung): > 33.3 µM
GI50 (OVCAR-5 ovarian): 0.65 µM
TGI (OVCAR-5 ovarian): > 33.3 µM
GI50 (SW-620 colon): 0.205 µM
TGI (SW-620 colon): > 33.3 µM
GI50 (TK-10 renal): 2.61 µM
TGI (TK-10 renal): > 33.3 µM

CNC(=O)c1ccccc1Nc1nc(Nc2ccc3c(c2OC)CCC[C@H](N2CCN(CCO)CC2)C3)ncc1Cl
GI50 (SN12C renal): 2.57 µM and 2.59 µM
TGI (SN12C renal): 13.3 µM and > 10 µM
GI50 (MCF7 breast): 0.37 µM and 0.374 µM
TGI (MCF7 breast): 11.2 µM and > 10 µM
GI50 (UACC-62 melanoma): 1.58 µM and 1.35 µM
TGI (UACC-62 melanoma): 4.02 µM and 3.39 µM
GI50 (786-0 renal): 1.48 µM and 1.44 µM
TGI (786-0 renal): 4.24 µM and 5.06 µM
GI50 (NCI-H226 lung): 7.65 µM and 2.57 µM
TGI (NCI-H226 lung): 20.8 µM and > 10 µM
GI50 (OVCAR-5 ovarian): 0.656 µM and 0.732 µM
TGI (OVCAR-5 ovarian): 15.5 µM and > 10 µM
GI50 (SW-620 colon): 0.863 µM and 0.669 µM
TGI (SW-620 colon): 11.3 µM and > 10 µM
GI50 (TK-10 renal): 2.97 µM and 0.656 µM
TGI (TK-10 renal): 18.2 µM and > 10 µM
